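Dose response: 5 concentrations. Exposure: 48 h. Format: 96-well plates. Endpoint: linear interpolation; highest concentration if not reached. TGI: total growth inhibition.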
Legend:
Assay in all cases: DTP human tumour cell line panel, 48 h
LOX IMVI melanoma = system: LOX IMVI melanoma
MALME-3M melanoma = system: MALME-3M melanoma
SR leukemia = system: SR leukemia
MOLT-4 leukemia = system: MOLT-4 leukemia
SNB-75 CNS = system: SNB-75 CNS
HOP-62 NSCLC = system: HOP-62 NSCLC
OVCAR-8 ovarian = system: OVCAR-8 ovarian
SF-268 CNS = system: SF-268 CNS
M14 melanoma = system: M14 melanoma
SF-295 CNS = system: SF-295 CNS
786-0 renal = system: 786-0 renal
NCI/ADR-RES ovarian = system: NCI/ADR-RES ovarian
CAKI-1 renal = system: CAKI-1 renal
MDA-MB-435 = system: MDA-MB-435
BT-549 breast = system: BT-549 breast
NCI-H226 lung = system: NCI-H226 lung
SK-MEL-28 melanoma = system: SK-MEL-28 melanoma
HS 578T breast = system: HS 578T breast
COLO 205 colon = system: COLO 205 colon
NCI-H460 lung = system: NCI-H460 lung
T-47D breast = system: T-47D breast
OVCAR-5 ovarian = system: OVCAR-5 ovarian
RXF 393 renal = system: RXF 393 renal
SK-OV-3 ovarian = system: SK-OV-3 ovarian
U251 CNS = system: U251 CNS
OVCAR-3 ovarian = system: OVCAR-3 ovarian
PC-3 prostate = system: PC-3 prostate
SF-539 CNS = system: SF-539 CNS
MCF7 breast = system: MCF7 breast
UACC-62 melanoma = system: UACC-62 melanoma
TK-10 renal = system: TK-10 renal
OVCAR-4 ovarian = system: OVCAR-4 ovarian
K-562 leukemia = system: K-562 leukemia
CCRF-CEM leukemia = system: CCRF-CEM leukemia
RPMI-8226 leukemia = system: RPMI-8226 leukemia
SK-MEL-5 melanoma = system: SK-MEL-5 melanoma
UO-31 renal = system: UO-31 renal
IGROV1 ovarian = system: IGROV1 ovarian
UACC-257 melanoma = system: UACC-257 melanoma
HL-60(TB) leukemia = system: HL-60(TB) leukemia
A549 NSCLC = system: A549 NSCLC
HT29 colon = system: HT29 colon
EKVX NSCLC = system: EKVX NSCLC
NCI-H23 lung = system: NCI-H23 lung
MDA-N = system: MDA-N
SNB-19 CNS = system: SNB-19 CNS
NCI-H522 lung = system: NCI-H522 lung
SK-MEL-2 melanoma = system: SK-MEL-2 melanoma
A498 renal = system: A498 renal
MDA-MB-231 breast = system: MDA-MB-231 breast
HCT-15 colon = system: HCT-15 colon
HCC-2998 colon = system: HCC-2998 colon
ACHN renal = system: ACHN renal
KM12 colon = system: KM12 colon
SN12C renal = system: SN12C renal
SW-620 colon = system: SW-620 colon
DU-145 prostate = system: DU-145 prostate
HOP-92 NSCLC = system: HOP-92 NSCLC
HCT-116 colon = system: HCT-116 colon

Compound `N#CC12CC3=C(N=C1NC1=C(CCc4ccccc41)C2)c1ccccc1CC3` (centres undefined) has a TGI (LOX IMVI melanoma) of 13.9 µM, a TGI (MALME-3M melanoma) of 37.1 µM and a TGI (SR leukemia) of 0.694 µM. The TGI (MOLT-4 leukemia) was 7 µM, the TGI (SNB-75 CNS) was 11 µM and the TGI (HOP-62 NSCLC) was 53 µM. For the same compound, the TGI (OVCAR-8 ovarian) was 15.7 µM, the TGI (SF-268 CNS) was > 86.4 µM and the TGI (M14 melanoma) was 17.6 µM. The TGI (SF-295 CNS) was 12 µM, the TGI (786-0 renal) was 43.8 µM and the TGI (NCI/ADR-RES ovarian) was 29.5 µM. It also gave a TGI (CAKI-1 renal) of 77.2 µM, a TGI (MDA-MB-435) of 0.923 µM and a TGI (BT-549 breast) of 65.3 µM. For the same compound, the TGI (NCI-H226 lung) was 29.7 µM, the TGI (SK-MEL-28 melanoma) was 44.3 µM and the TGI (HS 578T breast) was > 34.5 µM. For the same compound, the TGI (COLO 205 colon) was 5.55 µM, the TGI (NCI-H460 lung) was > 100 µM and the TGI (T-47D breast) was > 96 µM. The TGI (OVCAR-5 ovarian) was > 100 µM, the TGI (RXF 393 renal) was > 100 µM and the TGI (SK-OV-3 ovarian) was 27.6 µM. For the same compound, the TGI (U251 CNS) was 17.1 µM, the TGI (OVCAR-3 ovarian) was 8.13 µM and the TGI (PC-3 prostate) was > 54.5 µM. The TGI (SF-539 CNS) was 7.22 µM, the TGI (MCF7 breast) was > 38.3 µM and the TGI (UACC-62 melanoma) was 42.6 µM. For the same compound, the TGI (TK-10 renal) was 65.8 µM, the TGI (OVCAR-4 ovarian) was > 78.6 µM and the TGI (K-562 leukemia) was 1.36 µM. The TGI (CCRF-CEM leukemia) was 3.38 µM, the TGI (RPMI-8226 leukemia) was 4.15 µM and the TGI (SK-MEL-5 melanoma) was > 35.5 µM. For the same compound, the TGI (UO-31 renal) was 35.1 µM, the TGI (IGROV1 ovarian) was > 40.3 µM and the TGI (UACC-257 melanoma) was > 84.4 µM. For the same compound, the TGI (HL-60(TB) leukemia) was 1.15 µM, the TGI (A549 NSCLC) was > 100 µM and the TGI (HT29 colon) was 6.52 µM. For the same compound, the TGI (EKVX NSCLC) was > 100 µM, the TGI (NCI-H23 lung) was 39.2 µM and the TGI (MDA-N) was 0.809 µM. It also gave a TGI (SNB-19 CNS) of 73.5 µM, a TGI (NCI-H522 lung) of 6.47 µM and a TGI (SK-MEL-2 melanoma) of 23.6 µM. The TGI (A498 renal) was 7.97 µM, the TGI (MDA-MB-231 breast) was > 57.5 µM and the TGI (HCT-15 colon) was 51 µM. The TGI (HCC-2998 colon) was 4.35 µM, the TGI (ACHN renal) was > 100 µM and the TGI (KM12 colon) was 20.4 µM. For the same compound, the TGI (SN12C renal) was > 81.9 µM, the TGI (SW-620 colon) was > 42.4 µM and the TGI (DU-145 prostate) was > 85.1 µM. For the same compound, the TGI (HOP-92 NSCLC) was 41.4 µM and the TGI (HCT-116 colon) was 21.7 µM.
